In US6002008A, “Substituted 3-cyano quinolines” (American Cyanamid Company, priority 1998, dated 1999):

Tests used:
[1] = tested on: human epidermoid tumors (A431); experiment: In vivo inhibition of the growth of human epidermoid tumors (A431) in mice; parameters: species or system human tumor in BALB/c nu/nu female mice; details: for tumor growth was inhibited by: 100 mg/kg i.p. days 1-10
[2] = tested on: PC3; experiment: Inhibition of cancer cell growth as measured by cell number; assay type: cell-based, human; details: PC3, 48 hours
[3] = tested on: SKBR3; experiment: as above; assay type: cell-based, human; details: SKBR3, 48 hours, Table 8
[4] = tested on: A431; experiment: as above; assay type: cell-based, human; details: A431, 48 hours, Table 8
[5] = tested on: SW620; experiment: as above; assay type: cell-based, human; details: SW620, 48 hours, Table 8

**Q.** For `CCOc1cc2ncc(C#N)c(Nc3cccc(Br)c3)c2cc1OCC` [Example 47, 4-[(3-Bromophenyl)amino]-6,7-diethoxy-3-quinolinecarbonitrile], which “% T/C” value ([1]; 40 mg/kg/dose IP days 1-10, day 7) is on record?
**A.** 69%

**Q.** What about the “% T/C” value ([1]; 40 mg/kg/dose IP days 1-10, day 14) of the same compound?
**A.** 74%

**Q.** And the “% T/C” value ([1]; 40 mg/kg/dose IP days 1-10, day 21)?
**A.** 116%

**Q.** What about the “% T/C” value ([1]; 40 mg/kg/dose IP days 1-10, day 28) of the same compound?
**A.** 136%

**Q.** What about the “% T/C” value ([1]; 50 mg/kg/dose IP days 1-10, day 7) of the same compound?
**A.** 44%

**Q.** And the “% T/C” value ([1]; 50 mg/kg/dose IP days 1-10, day 14)?
**A.** 55%

**Q.** And the “% T/C” value ([1]; 50 mg/kg/dose IP days 1-10, day 21)?
**A.** 87%

**Q.** And the “% T/C” value ([1]; 50 mg/kg/dose IP days 1-10, day 28)?
**A.** 102%

**Q.** And the “tumor growth was inhibited by” value ([1]; day 7)?
**A.** 66%

**Q.** And the “tumor growth was inhibited by” value ([1]; day 14)?
**A.** 63%

**Q.** What about the “tumor growth was inhibited by” value ([1]; day 21) of the same compound?
**A.** 49%

**Q.** What about the “tumor growth was inhibited by” value ([1]; day 28) of the same compound?
**A.** 57%

**Q.** What about the “% T/C” value ([1]; 100 mg/kg/dose IP days 1-10, day 7) of the same compound?
**A.** 34%

**Q.** And the “% T/C” value ([1]; 100 mg/kg/dose IP days 1-10, day 14)?
**A.** 37%

**Q.** What about the “% T/C” value ([1]; 100 mg/kg/dose IP days 1-10, day 21) of the same compound?
**A.** 51%

**Q.** What about the “% T/C” value ([1]; 100 mg/kg/dose IP days 1-10, day 28) of the same compound?
**A.** 43%

**Q.** And the “Tumor growth inhibition, dose dependence” value ([1]; i.p. days 1-10)?
**A.** appeared to be dose dependent

**Q.** And the “Inhibition of Cancer Cell Growth as Measured by Cell Number (IC50)” value (“Inhibition of Cancer Cell Growth” below) [2]?
**A.** 0.11 µg/mL

**Q.** For `CCCN(CC#CC(=O)Nc1ccc2ncc(C#N)c(Nc3cccc(Br)c3)c2c1)CCC` [Example 170, N-{4-[(3-Bromophenyl)amino]-3-cyano-6-quinolinyl}-4-dipropylamino-2-butynamide], which “Inhibition of Cancer Cell Growth” value [3] is on record?
**A.** 0.03 µg/mL

**Q.** And the “Inhibition of Cancer Cell Growth” value [4]?
**A.** 0.03 µg/mL

**Q.** And the “Inhibition of Cancer Cell Growth” value [5]?
**A.** 0.1 µg/mL
